The values below come from patent US9839669B2 (priority 2011, dated 2017).

For data set [1], the system named is Vero cells.
Data set [2] relates to HSV-1. It counts as cell-based, Herpes simplex viruses type 1. To be noted: Aciclovir 1.5 mmol.
The test system of data set [3] is BGM cells.

Molecules are shown by their SMILES. Like-named read-outs stand apart in the source and are kept apart here.

Take `Nc1nc2c(ncn2COCCO)c(=O)[nH]1` [Aciclovir]: the cytotoxicity entry in data set [1] and in data set [3] was “negative” each time. This compound also returned an Average relative inhibition in data set [2] (average over virus dilutions) of 100. Besides, the “Number of plaque, Mean value” in data set [2] (virus dilution 10^−5.0), in data set [2] (virus dilution 10^−5.48) and in data set [2] (virus dilution 10^−5.95) was 0 in each case. Moreover, the Relative infectiosity in data set [2] (virus dilution 10^−5.0), in data set [2] (virus dilution 10^−5.48) and in data set [2] (virus dilution 10^−5.95) was 0 in each case. The Relative inhibition in data set [2] (virus dilution 10^−5.0), in data set [2] (virus dilution 10^−5.48) and in data set [2] (virus dilution 10^−5.95) was 100 each time.
